From paper PMC7948503, “Optimization of a peptide ligand for the adhesion GPCR ADGRG2 provides a potent tool to explore receptor biology” (The Journal of Biological Chemistry, 2020)
Non-standard residues stand in square brackets, D forms with d. Residues, ends and D or L forms follow the SMILES beside them. Phe(4-Me) = Cc1ccc(C[C@H](N)C(=O)O)cc1

Key:
Assay in all cases: GloSensor cAMP assay
Format in all cases: cell-based
[1] = target: T1, ADGRG2-ΔGPS-β W662A (Mus musculus, UniProt Q8CJ12, W676A); conditions: mutant W662A; HEK293, cAMP Glosensor
T1 construct: expressed in transfected cells; host or cells: HEK293
T1 sequence (Q8CJ12 614-1009 W676A): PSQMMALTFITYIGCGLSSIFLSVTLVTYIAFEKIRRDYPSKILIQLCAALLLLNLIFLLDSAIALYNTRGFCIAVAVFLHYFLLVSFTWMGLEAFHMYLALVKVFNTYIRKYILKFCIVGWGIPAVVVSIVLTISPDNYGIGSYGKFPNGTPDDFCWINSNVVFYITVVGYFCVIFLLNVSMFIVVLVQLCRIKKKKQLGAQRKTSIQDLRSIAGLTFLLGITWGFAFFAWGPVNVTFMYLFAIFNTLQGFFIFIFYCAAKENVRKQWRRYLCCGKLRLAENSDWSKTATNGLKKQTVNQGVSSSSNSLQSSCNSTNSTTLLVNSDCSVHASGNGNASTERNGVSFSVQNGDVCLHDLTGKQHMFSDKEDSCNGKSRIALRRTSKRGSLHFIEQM
From the text: (§1) Wildtype ADGRG2 full-length (ADGRG2-FL) was cloned from mouse total cDNA libraries using the following primers: forward, […]; reverse, […], and then ADGRG2-FL, ADGRG2 C-terminal truncation mutant (ADGRG2-β), and ADGRG2-ΔGPS-β (the entire ECD of ADGRG2 was deleted) were subcloned into the pcDNA3.1 expression vector. The ADGRG2-ΔGPS-β mutants (T610A, Y611A, C614A, S661A, W662A, I663A, L665A, Y666A，N667A, F671A, L679A, L683A, I730A, V731A, F741A, F747A, W757A, I758A, N759A, S760A, V762A, F764A, Y765A, V768A, V769A, F772A, V774A, W824A, F826A, F828A, F829A, V834A, V836A, F838A, M839A, I844A, F845A) were generated using a QuikChange Mutagenesis Kit (Stratagene). All mutations were verified by DNA sequencing.
(§2) The Glosensor cAMP assay was performed as described ([6], [39], [40]). HEK293 cells were transfected with the GloSensor plasmid and the desired expression plasmids in 24-well dishes. Twenty-four hours after transfection, the cells were plated on 96-well plates at a cell density of 20,000 cells/well. The cells were maintained in Dulbecco’s modified Eagle’s medium for another 24 h, washed with PBS, and then incubated with 100 μl of solution containing 10% fetal bovine serum, 2% (v/v) GloSensor cAMP reagent, and 88% CO2-independent medium in each well for 2 h. The cAMP signal was examined using a luminescence counter (Mithras LB 940).

[2] = target: T2, ADGRG2-ΔGPS-β N667A (Mus musculus, UniProt Q8CJ12, N681A); conditions: mutant N667A; HEK293, cAMP Glosensor
T2 construct: expressed in transfected cells; host or cells: HEK293
T2 sequence (Q8CJ12 614-1009 N681A): as the sequence (Q8CJ12 614-1009 W676A) above, with A63W, N68A counted along it
From the text: as §1, §2

[3] = target: T3, ADGRG2-ΔGPS-β Y765A (Mus musculus, UniProt Q8CJ12, Y779A); conditions: mutant Y765A; HEK293, cAMP Glosensor
T3 construct: expressed in transfected cells; host or cells: HEK293
From the text: as §1, §2

[4] = target: T4, ADGRG2-ΔGPS-β F838A (Mus musculus, UniProt Q8CJ12, F852A); conditions: mutant F838A; HEK293, cAMP Glosensor
T4 construct: expressed in transfected cells; host or cells: HEK293
T4 sequence (Q8CJ12 614-1009 F852A): as the sequence (Q8CJ12 614-1009 W676A) above, with A63W, F239A counted along it
From the text: as §1, §2

[5] = target: T5, ADGRG2-ΔGPS-β Y611A (Mus musculus, UniProt Q8CJ12, Y625A); conditions: mutant Y611A; HEK293, cAMP Glosensor
T5 construct: expressed in transfected cells; host or cells: HEK293
T5 sequence (Q8CJ12 614-1009 Y625A): as the sequence (Q8CJ12 614-1009 W676A) above, with Y12A, A63W counted along it
From the text: as §1, §2

[6] = target: T6, ADGRG2-ΔGPS-β C614A (Mus musculus, UniProt Q8CJ12, C628A); conditions: mutant C614A; HEK293, cAMP Glosensor
T6 construct: expressed in transfected cells; host or cells: HEK293
T6 sequence (Q8CJ12 614-1009 C628A): as the sequence (Q8CJ12 614-1009 W676A) above, with C15A, A63W counted along it
From the text: as §1, §2

[7] = target: T7, ADGRG2-ΔGPS-β L665A (Mus musculus, UniProt Q8CJ12, L679A); conditions: mutant L665A; HEK293, cAMP Glosensor
T7 construct: expressed in transfected cells; host or cells: HEK293
T7 sequence (Q8CJ12 614-1009 L679A): as the sequence (Q8CJ12 614-1009 W676A) above, with A63W, L66A counted along it
From the text: as §1, §2

[8] = target: T8, ADGRG2-ΔGPS-β N759A (Mus musculus, UniProt Q8CJ12, N773A); conditions: mutant N759A; HEK293, cAMP Glosensor
T8 construct: expressed in transfected cells; host or cells: HEK293
T8 sequence (Q8CJ12 614-1009 N773A): as the sequence (Q8CJ12 614-1009 W676A) above, with A63W, N160A counted along it
From the text: as §1, §2

[9] = target: T9, ADGRG2-ΔGPS-β F747A (Mus musculus, UniProt Q8CJ12, F761A); conditions: mutant F747A; HEK293, cAMP Glosensor
T9 construct: expressed in transfected cells; host or cells: HEK293
T9 sequence (Q8CJ12 614-1009 F761A): as the sequence (Q8CJ12 614-1009 W676A) above, with A63W, F148A counted along it
From the text: as §1, §2

[10] = target: T10, ADGRG2-ΔGPS-β I741A (Mus musculus, UniProt Q8CJ12, I755A); conditions: mutant I741A; HEK293, cAMP Glosensor
T10 construct: expressed in transfected cells; host or cells: HEK293
T10 sequence (Q8CJ12 614-1009 I755A): as the sequence (Q8CJ12 614-1009 W676A) above, with A63W, I142A counted along it
From the text: as §1, §2

[11] = target: T11, ADGRG2-ΔGPS-β V834A (Mus musculus, UniProt Q8CJ12, V848A); conditions: mutant V834A; HEK293, cAMP Glosensor
T11 construct: expressed in transfected cells; host or cells: HEK293
T11 sequence (Q8CJ12 614-1009 V848A): as the sequence (Q8CJ12 614-1009 W676A) above, with A63W, V235A counted along it
From the text: as §1, §2

[12] = target: T12, ADGRG2-ΔGPS-β F826A (Mus musculus, UniProt Q8CJ12, F840A); conditions: mutant F826A; HEK293, cAMP Glosensor
T12 construct: expressed in transfected cells; host or cells: HEK293
T12 sequence (Q8CJ12 614-1009 F840A): as the sequence (Q8CJ12 614-1009 W676A) above, with A63W, F227A counted along it
From the text: as §1, §2

[13] = target: T13, ADGRG2-ΔGPS-β I844A (Mus musculus, UniProt Q8CJ12, I858A); conditions: mutant I844A; HEK293, cAMP Glosensor
T13 construct: expressed in transfected cells; host or cells: HEK293
T13 sequence (Q8CJ12 614-1009 I858A): as the sequence (Q8CJ12 614-1009 W676A) above, with A63W, I245A counted along it
From the text: as §1, §2

[14] = target: T14, ADGRG2-ΔGPS-β V731A (Mus musculus, UniProt Q8CJ12, V745A); conditions: mutant V731A; HEK293, cAMP Glosensor
T14 construct: expressed in transfected cells; host or cells: HEK293
T14 sequence (Q8CJ12 614-1009 V745A): as the sequence (Q8CJ12 614-1009 W676A) above, with A63W, V132A counted along it
From the text: as §1, §2

[15] = target: T15, ADGRG2-ΔGPS-β V836A (Mus musculus, UniProt Q8CJ12, V850A); conditions: mutant V836A; HEK293, cAMP Glosensor
T15 construct: expressed in transfected cells; host or cells: HEK293
T15 sequence (Q8CJ12 614-1009 V850A): as the sequence (Q8CJ12 614-1009 W676A) above, with A63W, V237A counted along it
From the text: as §1, §2

[16] = target: T16, ADGRG2-ΔGPS-β F671A (Mus musculus, UniProt Q8CJ12, F685A); conditions: mutant F671A; HEK293, cAMP Glosensor
T16 construct: expressed in transfected cells; host or cells: HEK293
T16 sequence (Q8CJ12 614-1009 F685A): as the sequence (Q8CJ12 614-1009 W676A) above, with A63W, F72A counted along it
From the text: as §1, §2

[17] = target: T17, ADGRG2-ΔGPS-β I663A (Mus musculus, UniProt Q8CJ12, I677A); conditions: mutant I663A; HEK293, cAMP Glosensor
T17 construct: expressed in transfected cells; host or cells: HEK293
T17 sequence (Q8CJ12 614-1009 I677A): as the sequence (Q8CJ12 614-1009 W676A) above, with A63W, I64A counted along it
From the text: as §1, §2

[18] = target: T18, ADGRG2-ΔGPS-β S760A (Mus musculus, UniProt Q8CJ12, S774A); conditions: mutant S760A; HEK293, cAMP Glosensor
T18 construct: expressed in transfected cells; host or cells: HEK293
T18 sequence (Q8CJ12 614-1009 S774A): as the sequence (Q8CJ12 614-1009 W676A) above, with A63W, S161A counted along it
From the text: as §1, §2

[19] = target: T19, ADGRG2-ΔGPS-β F764A (Mus musculus, UniProt Q8CJ12, F778A); conditions: mutant F764A; HEK293, cAMP Glosensor
T19 construct: expressed in transfected cells; host or cells: HEK293
T19 sequence (Q8CJ12 614-1009 F778A): as the sequence (Q8CJ12 614-1009 W676A) above, with A63W, F165A counted along it
From the text: as §1, §2

[20] = target: T20, ADGRG2-ΔGPS-β W757A (Mus musculus, UniProt Q8CJ12, W771A); conditions: mutant W757A; HEK293, cAMP Glosensor
T20 construct: expressed in transfected cells; host or cells: HEK293
T20 sequence (Q8CJ12 614-1009 W771A): as the sequence (Q8CJ12 614-1009 W676A) above, with A63W, W158A counted along it
From the text: as §1, §2

EC50 [1]: 1550 nM
EC50 [2]: 1240 nM
EC50 [3]: 1070 nM
EC50 [4]: 1700 nM
EC50 [5]: 1060 nM
EC50 [6]: 2170 nM
EC50 [7]: 1590 nM
EC50 [8]: 4760 nM
EC50 [9]: 1130 nM
EC50 [10]: 1550 nM
EC50 [11]: 1140 nM
EC50 [12]: 6600 nM
EC50 [13]: 12900 nM
EC50 [14]: 1220 nM
EC50 [15]: 4130 nM
EC50 [16]: 1200 nM
EC50 [17]: 1200 nM
EC50 [18]: 1950 nM
EC50 [19]: 938 nM
EC50 [20]: 14200 nM
Structure (SMILES): CC[C@H](C)[C@H](NC(=O)CNC(=O)[C@H](Cc1ccc(C)cc1)NC(=O)[C@H](CO)NC(=O)[C@@H](N)C(C)C)C(=O)N[C@@H](CC(C)C)C(=O)N[C@@H](CC(C)C)C(=O)N[C@@H](CC(=O)O)C(=O)N[C@@H](CC(C)C)C(=O)N[C@@H](CO)C(=O)N[C@@H](CCCNC(=N)N)C(=O)N[C@H](C(=O)N[C@@H](CO)C(=O)N[C@@H](CC(C)C)C(=O)N1CCC[C@H]1C(=O)O)[C@@H](C)O [VPM-p15] (H-VS[Phe(4-Me)]GILLDLSRTSLP-OH)
